Data from patent US20140000883A1, “PETROLEUM RECOVERY PROCESS AND SYSTEM” (Shell Oil Company, priority 2012, published 2014).
Several values for one entry are separate records, joined by “and”; a condition that tells them apart may be missing. Identical values can stand only once. Like-named read-outs stand apart in the source and are kept apart here.

Legend:
[1] = SARA analysis of extracted bitumen samples; details: bitumen extracted at 30° C.
Description: The bitumen samples extracted at 30° C. from each oil sands sample were evaluated by SARA analysis to determine the saturates, aromatics, resins, and asphaltenes composition of the bitumen samples extracted by each solvent.

[2] = Extraction of mined oil sands with solvents (bitumen recovery);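 as to Recovered Bitumen: Bitumen mass includes 3 to 7 wt% residual solvent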
Description: The quality of dimethyl sulfide as an oil recovery agent based on the miscibility of dimethyl sulfide with a crude oil relative to other compounds was evaluated. […] Each oil sands sample was weighed and placed in a cellulose extraction thimble that was placed on a porous polyethylene support disk in a jacketed glass cylinder with a drip rate control valve. Each oil sands sample was then extracted with a selected solvent at a selected temperature (10° C. or 30° C.) in a cyclic contact and drain experiment, where the contact time ranged from 15 to 60 minutes. Fresh contacting solvent was applied and the cyclic extraction repeated until the fluid drained from the apparatus became pale brown in color.
The extracted fluids were stripped of solvent using a rotary evaporator and thereafter vacuum dried to remove residual solvent. […] The residual solids and extraction thimble were air dried, weighed, and then vacuum dried. […] Collectively, the weight of the solid or sample and thimble recovered after extraction plus the quantity of bitumen recovered after extraction divided by the weight of the initial oil sands sample plus the thimble provide the mass closure for the extractions.

[3] = extraction at 10 C., not corrected for residual solvent
[4] = extraction at 30 C., not corrected for residual solvent

Structure (SMILES)	extraction of / miscibility with asphaltenes [1]	Weight Change ([2]; extraction at 10 C.)	Recovered Bitumen [2, 3]	Weight Change ([2]; extraction at 30 C.)	Recovered Bitumen [2, 4]	Recovered Bitumen [2]	Weight Change [2]
CCOC(C)=O [Ethyl Acetate, ethyl acetate]	much less effective	11.2 g	10.32 g	17.7 g	11.46 g	–	–
S=C=S [Carbon Disulfide, carbon disulfide]	–	16.8 g	16.62 g	16.4 g	16.43 g	–	–
C1CCOC1 [Tetrahydrofuran, tetrahydrofuran]	–	17.7 g	16.72 g	18.0 g	17.67 g	–	–
ClC(Cl)Cl [Chloroform, chloroform]	–	–	–	–	–	17.85 g and 18.62 g	18.7 g and 19.4 g
Cc1ccccc1C [o-Xylene, o-xylene]	–	17.3 g	17.36 g	19.5 g	17.37 g	–	–
ClCCl [Dichloromethane, dichloromethane]	–	18.9 g	17.66 g	17.7 g	16.30 g	–	–
